The values that follow are results of earlier work, collected in patent publication US20230059204A1, “T[…]-DOSING […] OF PHARMACEUTICAL AGENTS” (PIKE THERAPEUTICS, INC., priority 2021, published 2023).

Structures are written as SMILES.

This data set relates to serotonin receptors in the brain. As to conditions: once ingested.

With `CN(C)CCc1c[nH]c2cccc(OP(=O)(O)O)c12` [psilocybin, [3-(2-dimethylaminoethyl)-1H-indol-4-yl] dihydrogen phosphate], the “duration of mind-altering effects” value was “two to six”.
